Series [1] in a line: Stability in presence of GSH by APCI-MS. The format is physicochemical. The note with it: 10 mM GSH, 23 °C, up to 1 h. As for the experimental part: (§1) It has been reported that pentathiepins are instable in the presence of thiols such as GSH.20 Thus, the stability of a representative pentathiepin, 4, in the presence of GSH was studied first by APCI‐MS. Incubations of 4 in the presence of 10 mM GSH, a biologically relevant concentration, were monitored at 23 °C for a period up to 1 h. […] Next, the stability of 4 was studied by RP‐HPLC in the same buffer and with the same GSH concentration (0.25 mM) used in the GPx assay (see below). Over the course of a 70 min incubation a nearly 30 % loss of the pentathiepin (Figure S32) was observed. However, since the GPx assay is only run for 20 min, the direct reaction between 4 and GSH would only account for a ca. 10 % loss of pentathiepin under assay conditions.

Series [2] concerns Gumbus cells. Put plainly: Cell morphology after incubation. Particulars: 25 μM, 6 h. The series is classed as cell-based, human.
Series [3] can be described thus: Stability in GPx assay buffer with GSH by RP-HPLC. The format is physicochemical. As for the experimental part: as §1
Melting points were determined with a Büchi Melting Point M‐565 or a Büchi 545 (Büchi, Flawil, CH), temperatures are uncorrected. ^1H NMR and ^13C NMR spectra were recorded either with a Bruker Avance II‐300 or an Avance II Ultrashield 400 MHz instrument. Chemical shifts δ are given in ppm and the solvent residual peak (CDCl3: ^1H, δ=7.27; ^13C, δ=77.0 and [D6]DMSO: ^1H, δ=2.50; ^13C, δ=40) was used as an internal standard with the quinoxaline derivatives while TMS was used for the indole derivatives. APCI‐MS (m/z) spectra were recorded on an Advion MS. […]

The test system of series [4] is Gumbus cells. The series can be described thus: MTT cell viability assay. The series is classed as cell-based, human. Particulars: 48 h. As for the experimental part:
(§2) We determined IC50 values for the viability reduction in a low micro molar range (Figure 6B).
(§3) MTT cell viability assay: For the detection of the inhibition of the viability of cells by the pentathiepins, the MTT‐viability assay was used.37 Briefly, 10 000 and 20 000 cells for the suspension cell lines HL‐60 and Gumbus, respectively, were seeded out in 50 μL medium per well and immediately exposed to the compounds. For the adherent cell lines SISO and HAP‐1, 3000 and 5000 cells, respectively, were seeded out in 96‐well plates and allowed to attach for 24 h. Cells were exposed to nine serial dilutions of compound, added to the medium from 1000‐fold concentrated stock solution in DMF. For the controls, cells were exposed to 0.1 % DMF alone. After 48 h incubation, 20 μL of the MTT stock solution (2.5 mg/mL in PBS) were added to each well to give a final concentration of 1.0 mM. The formazan crystals that formed after 4 h at 37 °C were dissolved by sonification after adding 100 μL of 0.04 M HCl in isopropanol for the suspension cell lines, or with 50 μL DMSO after aspiration of the medium for the adherent cell lines. Optical density was measured with a SpectraMax Plus 383 microtiter plate read at λ=570 nm (Molecular Devices, USA). Data of related absorption to control cells were imported into GraphPad Prism 6.0 software and IC50 values were generated by determining the inflection point of the sigmoidal log concentration‐viability inhibition curves.
For orientation: Tetrazolium dyes change colour on reduction, which living cells bring about.

For another series, the system named is SISO cells. Put plainly: MTT cell viability assay. The note with it: 48 h. The series is classed as cell-based, human. As to the method:
as §2, §3

A further series deals with HAP-1 cells. Put plainly: MTT cell viability assay. The series is classed as cell-based, human. As to the method:
as §2, §3

Where [5] appears, read: Homo sapiens, MTT, read-out: IC50 for viability reduction.

Consider `CCOc1c2c(c3cnc4cc(C)c(C)cc4n13)SSSSS2` [Compound 4], for which the “stability in presence of GSH (mass spectrum)” value in series [1] is “No changes in the mass spectrum”. Besides, the change in morphology entry in the series with Gumbus cells [2] is listed as “membrane blebbing”. Moreover, the “loss of the pentathiepin” value in series [3] (0.25 mM GSH in GPx assay buffer, 70 min, 23 °C, RP-HPLC) was about 30%. In series [3] (0.25 mM GSH, 20 min GPx assay duration), the “loss of pentathiepin under assay conditions” value is on record as “ca. 10%”. Moreover, the “cell viability at highest tested concentration” value in the series with Gumbus cells [4], in the series with SISO cells and with HAP-1 cells (48 h) was “complete loss of cell viability” each time. Moreover, the IC50 (in general, the point on the concentration scale where inhibition reaches its midpoint) in the series on Gumbus cells [4] (setting [5]) is 2200 to 3100 nM; with SISO cells (setting [5]) it was 2200 to 3100 nM; with HAP-1 cells (Homo sapiens, HAP1, 48 h, MTT, read-out: IC50 for viability reduction), 2200 to 3100 nM.

Values taken from publication PMC7496275, “Pentathiepins: A Novel Class of Glutathione Peroxidase 1 Inhibitors that Induce Oxidative Stress, Loss of Mitochondrial Membrane Potential and Apoptosis in Human Cancer Cells” (Chemmedchem, 2020).
